Measured values as given in US20230339916A1, “PLANT GROWTH REGULATOR COMPOUNDS” (SYNGENTA CROP PROTECTION AG, priority 2020, published 2023).
pIC50: −log10 of the molar value.

Test system: Corn leaf discs (variety Multitop)
Assay: Dark induced senescence of corn leaf
Type: in vivo
Conditions: Zea mays, foliar, 192 h; corn leaf discs in the dark, 23° C., 75% humidity, 8 days; 100 μM-0.0001 μM, 0.5% DMSO; image analysis; read-out: IC50 (concentration at which 50% senescence was achieved)
Procedure: Corn plants of variety Multitop were grown in a greenhouse with relative 75% humidity and at 23-25° C. for 6 weeks. 1.4 cm diameter leaf discs were placed into 24-well plates containing test compounds in a concentration gradient (100 μM-0.0001 μM) at a final concentration of 0.5% DMSO. Each concentration was tested in 12 replicates. Plates were sealed with seal foil. The foil was pierced to provide gas exchange in each well. The plates were placed into the completely dark climatic chamber. Plates were incubated in the chamber with 75% humidity and at 23° C. for 8 days. On days 0, 5, 6, 7 and 8 photographs were taken of each plate, and image analysis conducted with a macro developed using the ImageJ software. The image analysis was used to determine the concentration at which 50% senescence was achieved (IC50), see Table 3. The lower the value, the higher senescence induction potency.

pIC50	SMILES
> 5.52	CCOC(=O)/C(=C/OC1OC(=O)C(C)=C1C)n1ccc2ccccc21 (stereo not shown) [Compound I-7-Z, ethyl (Z)-3-[(3,4-dimethyl-5-oxo-2H-furan-2-yl)oxy]-2-indol-1-yl-prop-2-enoate]
> 5.52	CCOC(=O)/C(=C/OC1OC(=O)C(C)=C1C)n1ccc2cc(C(F)(F)F)ccc21 (stereo not shown) [Compound I-8-Z, ethyl (Z)-3-[(3,4-dimethyl-5-oxo-2H-furan-2-yl)oxy]-2-[5-(trifluoromethyl)indol-1-yl]prop-2-enoate]
> 5.52	CCOC(=O)/C(=C/OC1OC(=O)C(C)=C1C)n1ccc2cc(F)ccc21 (stereo not shown) [Compound I-9-Z, ethyl (Z)-3-[(3,4-dimethyl-5-oxo-2H-furan-2-yl)oxy]-2-(5-fluoroindol-1-yl)prop-2-enoate]
> 5.52	CCOC(=O)/C(=C/OC1OC(=O)C(C)=C1C)n1ccc2cc(-c3ccccc3)ccc21 (stereo not shown) [Compound I-11-Z, ethyl (Z)-3-[(3,4-dimethyl-5-oxo-2H-furan-2-yl)oxy]-2-(5-phenylindol-1-yl)prop-2-enoate]
> 5.52	CCOC(=O)/C(=C/OC1OC(=O)C(C)=C1C)n1cc(C#N)c2ccccc21 (stereo not shown) [Compound I-26-Z, ethyl (Z)-2-(3-cyanoindol-1-yl)-3-[(3,4-dimethyl-5-oxo-2H-furan-2-yl)oxy]prop-2-enoate]
> 5.52	CCOC(=O)/C(=C/OC1OC(=O)C(C)=C1C)n1cc(C)c2ccccc21 (stereo not shown) [Compound I-28-Z, ethyl (Z)-3-[(3,4-dimethyl-5-oxo-2H-furan-2-yl)oxy]-2-(3-methylindol-1-yl)prop-2-enoate]
> 5.52	CCOC(=O)/C(=C/OC1OC(=O)C(C)=C1C)n1c(C)c(C)c2ccccc21 (stereo not shown) [Compound I-30-Z, ethyl (Z)-2-(2,3-dimethylindol-1-yl)-3-[(3,4-dimethyl-5-oxo-2H-furan-2-yl)oxy]prop-2-enoate]
> 5.52	CCOC(=O)/C(=C/OC1C=C(C)C(=O)O1)n1nnc2ccccc21 (stereo not shown) [Compound I-31-Z, ethyl (Z)-2-(benzotriazol-1-yl)-3-[(4-methyl-5-oxo-2H-furan-2-yl)oxy]prop-2-enoate]
> 5.52	CCOC(=O)/C(=C/OC1OC(=O)C(C)=C1C)n1nnc2ccccc21 (stereo not shown) [Compound I-35-Z, ethyl (Z)-2-(benzotriazol-1-yl)-3-[(3,4-dimethyl-5-oxo-2H-furan-2-yl)oxy]prop-2-enoate]
> 5.52	CNC(=O)/C(=C/OC1OC(=O)C(C)=C1C)n1nnc2ccccc21 (stereo not shown) [Compound I-37-Z, (Z)-2-(benzotriazol-1-yl)-3-[(3,4-dimethyl-5-oxo-2H-furan-2-yl)oxy]-N-methyl-prop-2-enamide]
> 5.52	CCOC(=O)/C(=C/OC1C=C(C)C(=O)O1)n1ncc2ccccc21 (stereo not shown) [Compound I-42-Z, ethyl (Z)-2-indazol-1-yl-3-[(4-methyl-5-oxo-2H-furan-2-yl)oxy]prop-2-enoate]
> 5.52	CCOC(=O)/C(=C/OC1OC(=O)C(C)=C1C)n1ncc2ccccc21 (stereo not shown) [Compound I-46-Z, ethyl (Z)-3-[(3,4-dimethyl-5-oxo-2H-furan-2-yl)oxy]-2-indazol-1-yl-prop-2-enoate]
> 5.52	CC1=C(C)C(O/C=C(\C#N)n2ncc3ccccc32)OC1=O (stereo not shown) [Compound I-47-E, (E)-3-[(3,4-dimethyl-5-oxo-2H-furan-2-yl)oxy]-2-indazol-1-yl-prop-2-enenitrile]
> 5.52	CC1=C(C)C(O/C=C(/C#N)n2ncc3ccccc32)OC1=O (stereo not shown) [Compound I-47-Z, (Z)-3-[(3,4-dimethyl-5-oxo-2H-furan-2-yl)oxy]-2-indazol-1-yl-prop-2-enenitrile]
> 5.52	CCOC(=O)/C(=C/OC1C=C(C)C(=O)O1)n1nc(F)c2ccccc21 (stereo not shown) [Compound I-50-Z, ethyl (Z)-2-(3-fluoroindazol-1-yl)-3-[(4-methyl-5-oxo-2H-furan-2-yl)oxy]prop-2-enoate]
> 5.52	CCOC(=O)/C(=C/OC1OC(=O)C(C)=C1C)n1nc(F)c2ccccc21 (stereo not shown) [Compound I-51-Z, ethyl (Z)-3-[(3,4-dimethyl-5-oxo-2H-furan-2-yl)oxy]-2-(3-fluoroindazol-1-yl)prop-2-enoate]
> 5.52	CCOC(=O)/C(=C/OC1OC(=O)C(C)=C1C)n1cnc2ccccc21 (stereo not shown) [Compound I-57-Z, ethyl (Z)-2-(benzimidazol-1-yl)-3-[(3,4-dimethyl-5-oxo-2H-furan-2-yl)oxy]prop-2-enoate]
> 5.52	CCOC(=O)/C(=C/OC1OC(=O)C(C)=C1C)n1c(C)nc2ccccc21 (stereo not shown) [Compound I-59-Z, ethyl (Z)-3-[(3,4-dimethyl-5-oxo-2H-furan-2-yl)oxy]-2-(2-methylbenzimidazol-1-yl)prop-2-enoate]
> 5.52	CCOC(=O)/C(=C/OC1OC(=O)C(C)=C1C)n1c(=O)sc2ccccc21 (stereo not shown) [Compound I-65-Z]
> 5.52	CCOC(=O)/C(=C/OC1OC(=O)C(C)=C1C)N1C(=O)C2(CC2)c2ccccc21 (stereo not shown) [Compound I-67-Z, ethyl (Z)-3-[(3,4-dimethyl-5-oxo-2H-furan-2-yl)oxy]-2-(2′-oxospiro[cyclopropane-1,3′-indoline]-1′-yl)prop-2-enoate]

Second part, the compound before the results:

SMILES	pIC50
CCOC(=O)/C(=C/OC1C=C(C)C(=O)O1)n1ccc2ccccc21 (stereo not shown) [Compound I-1-Z, ethyl (Z)-2-indol-1-yl-3-[(4-methyl-5-oxo-2H-furan-2-yl)oxy]prop-2-enoate]	> 5.52
CCOC(=O)/C(=C/OC1C=C(C)C(=O)O1)n1ccc2cc(C(F)(F)F)ccc21 (stereo not shown) [Compound I-2-Z, ethyl (Z)-3-[(4-methyl-5-oxo-2H-furan-2-yl)oxy]-2-[5-(trifluoromethyl)indol-1-yl]prop-2-enoate]	> 5.52
CCOC(=O)/C(=C/OC1C=C(C)C(=O)O1)n1ccc2cc(F)ccc21 (stereo not shown) [Compound I-3-Z, ethyl (Z)-2-(5-fluoroindol-1-yl)-3-[(4-methyl-5-oxo-2H-furan-2-yl)oxy]prop-2-enoate]	> 5.52
CCOC(=O)/C(=C/OC1C=C(C)C(=O)O1)n1ccc2cc(-c3ccccc3)ccc21 (stereo not shown) [Compound I-5-Z, ethyl (Z)-3-[(4-methyl-5-oxo-2H-furan-2-yl)oxy]-2-(5-phenylindol-1-yl)prop-2-enoate]	> 5.52
CCOC(=O)/C(=C/OC1C=C(C)C(=O)O1)n1cc(C#N)c2ccccc21 (stereo not shown) [Compound I-25-Z, ethyl (Z)-2-(3-cyanoindol-1-yl)-3-[(4-methyl-5-oxo-2H-furan-2-yl)oxy]prop-2-enoate]	> 5.52
CCOC(=O)/C(=C/OC1C=C(C)C(=O)O1)n1cc(C)c2ccccc21 (stereo not shown) [Compound I-27-Z, ethyl (Z)-2-(3-methylindol-1-yl)-3-[(4-methyl-5-oxo-2H-furan-2-yl)oxy]prop-2-enoate]	> 5.52
CCOC(=O)/C(=C/OC1C=C(C)C(=O)O1)n1c(C)c(C)c2ccccc21 (stereo not shown) [Compound I-29-Z, ethyl (Z)-2-(2,3-dimethylindol-1-yl)-3-[(4-methyl-5-oxo-2H-furan-2-yl)oxy]prop-2-enoate]	> 5.52
CNC(=O)/C(=C\OC1C=C(C)C(=O)O1)n1nnc2ccccc21 (stereo not shown) [Compound I-33-E, (E)-2-(benzotriazol-1-yl)-N-methyl-3-[(4-methyl-5-oxo-2H-furan-2-yl)oxy]prop-2-enamide]	> 5.52
CC1=CC(O/C=C(/C(=O)N(C)C)n2nnc3ccccc32)OC1=O (stereo not shown) [Compound I-34-Z, (Z)-2-(benzotriazol-1-yl)-N,N-dimethyl-3-[(4-methyl-5-oxo-2H-furan-2-yl)oxy]prop-2-enamide]	> 5.52
CC1=CC(O/C=C(/C#N)n2ncc3ccccc32)OC1=O (stereo not shown) [Compound I-43-Z, (Z)-2-indazol-1-yl-3-[(4-methyl-5-oxo-2H-furan-2-yl)oxy]prop-2-enenitrile]	> 5.52
CCOC(=O)/C(=C/OC1C=C(C)C(=O)O1)n1cnc2ccccc21 (stereo not shown) [Compound I-56-Z, ethyl (Z)-2-(benzimidazol-1-yl)-3-[(4-methyl-5-oxo-2H-furan-2-yl)oxy]prop-2-enoate]	> 5.52
CCOC(=O)/C(=C/OC1C=C(C)C(=O)O1)n1cnc2c(N(C)C)nc(F)nc21 (stereo not shown) [Compound I-60-Z, ethyl (Z)-2-[6-(dimethylamino)-2-fluoro-purin-9-yl]-3-[(4-methyl-5-oxo-2H-furan-2-yl)oxy]prop-2-enoate]	> 5.52
CCOC(=O)/C(=C/OC1OC(=O)C(C)=C1C)n1cnc2c(N(C)C)nc(F)nc21 (stereo not shown) [Compound I-61-Z, ethyl (Z)-2-[6-(dimethylamino)-2-fluoro-purin-9-yl]-3-[(3,4-dimethyl-5-oxo-2H-furan-2-yl)oxy]prop-2-enoate]	> 5.52
CCOC(=O)/C(=C/OC1C=C(C)C(=O)O1)n1ccc2cncnc21 (stereo not shown) [Compound I-62-Z, ethyl (Z)-3-[(4-methyl-5-oxo-2H-furan-2-yl)oxy]-2-pyrrolo[2,3-d]pyrimidin-7-yl-prop-2-enoate]	> 5.52
CCOC(=O)/C(=C/OC1C=C(C)C(=O)O1)n1c(=O)sc2ccccc21 (stereo not shown) [Compound I-64-Z, ethyl (Z)-3-[(4-methyl-5-oxo-2H-furan-2-yl)oxy]-2-(2-oxo-1,3-benzothiazol-3-yl)prop-2-enoate]	> 5.52
CCOC(=O)/C(=C/OC1C=C(C)C(=O)O1)N1C(=O)C2(CC2)c2ccccc21 (stereo not shown) [Compound I-66-Z, ethyl (Z)-3-[(4-methyl-5-oxo-2H-furan-2-yl)oxy]-2-(2′-oxospiro[cyclopropane-1,3′-indoline]-1′-yl)prop-2-enoate]	> 5.52
CCOC(=O)/C(=C/OC1C=C(C)C(=O)O1)n1c(=O)oc2ccccc21 (stereo not shown) [Compound I-68-Z, ethyl (Z)-3-[(4-methyl-5-oxo-2H-furan-2-yl)oxy]-2-(2-oxo-1,3-benzoxazol-3-yl)prop-2-enoate]	> 5.52
